In patent US11505533B2, “Metabolically stable N-acylaminooxadiazoles useful as antibacterial agents” (MICROBIOTIX, INC., priority 2017, dated 2022):
In brackets after ≈: the same amount, converted by molar mass. Entries after “also recorded” stand apart in the source; their conditions may differ. Read-outs that look alike come from different tables or passages of the source.

Columns and labels:
[1] = Stability in liver microsomes in vitro; details: mouse or human liver microsomes in vitro; data not shown
[2] = system: translation; details: specific inhibitor of trans-translation; cited from earlier work
[3] = Preliminary PK studies in mice; details: IV or IP dosing at 10 mg/kg, data not shown
[4] = system: trans-translation; details: dose response assay; Ramadoss et al., PNAS 2013; cited from earlier work
[5] = system: mammalian systems; details: even in the context of prolonged exposure; cited from earlier work
[6] = system: S. aureus WTBF-19 (MSSA. osteomyelitis isolate); assay type: cell-based; details: Staphylococcus aureus, MSSA
[7] = system: N. gonorrhoeae; assay: MIC90 determination, clinical isolates; assay type: cell-based; details: Neisseria gonorrhoeae
[8] = system: S. aureus (ATCC 35556, spec, kan-res); assay type: cell-based; details: Staphylococcus aureus, ATCC35556
[9] = system: E. coli TolC(−); assay: TolC(−) MIC (NB); assay type: cell-based; details: Escherichia coli, read-out: TolC(−) MIC (μM)(NB)
[10] = system: Yersinia pestis; assay: microbe, parasite or virus in culture; assay type: cell-based
[11] = system: Moraxella catarrhalis 8176; assay type: cell-based
[12] = system: M. pneumoniae 15531; assay type: cell-based; details: Mycoplasmoides pneumoniae
[13] = Mouse serum stability; details: 5 μM, 37° C., 4 h
[14] = system: E. coli TolC(−); details: MIC in the presence of 10% fetal calf serum versus without
[15] = system: MRSA N315 NRS-70; assay type: cell-based; details: Staphylococcus aureus
[16] = system: S. aureus NRS-77 (spec-res); assay type: cell-based; details: Staphylococcus aureus, NRS77
[17] = system: N. gonorrhoeae H041 (MDR including AZM and CTX); assay type: cell-based; details: Neisseria gonorrhoeae
[18] = system: S. pneumoniae 49619; assay type: cell-based; details: Streptococcus pneumoniae
[19] = system: B. anthracis; assay: microbe, parasite or virus in culture; assay type: cell-based; details: Bacillus anthracis
[20] = system: Franciscella tularensis; assay: organism not typed; assay type: cell-based
[21] = system: S. aureus (MRSA-1234547263, Cip-res); assay type: cell-based; details: Staphylococcus aureus, MRSA
[22] = system: MRSA-1094 (MDR); assay type: cell-based; details: Staphylococcus aureus, MRSA
[23] = Mammalian cell cytotoxicity
[24] = system: Legionella pneumophila 33153; assay: microbe, parasite or virus in culture; assay type: cell-based
[25] = Caco-2 permeability; assay type: in vitro ADME; details: human, direction not given
Description: Res., 15(5): 726-733 (1998).

[26] = system: MRSA USA 300 (BAA-1717); assay type: cell-based; details: Staphylococcus aureus
[27] = system: E. coli (700, TolC+) efflux pos; assay type: cell-based; details: Escherichia coli
[28] = Microsomal stability + NADPH; details: mouse liver microsomes, 0.5 hr at 37° C.
[29] = system: Brucella suis; assay: microbe, parasite or virus in culture; assay type: cell-based
[30] = Aqueous solubility, nephelometry; details: water, kinetic from dmso stock
[31] = system: S. aureus ATCC 25923 (MSSA. osteomyelitis isolate); assay type: cell-based; details: Staphylococcus aureus
[32] = system: N. gonorrhoeae 49226; assay type: cell-based; details: Neisseria gonorrhoeae
[33] = system: Franciscella tularensis (Schu13); assay: organism not typed; assay type: cell-based
[34] = system: Haemophilus influenza 35056; assay type: cell-based
[35] = Mouse serum binding, equilibrium dialysis

O=C(Nc1nnc(-c2ccc(F)cc2)o1)c1ccc(Cl)cc1 [KKL-35]
stability in the presence of liver microsomes [1]: poor microsomal stability; also recorded: no detectable material after 5 min
effect on translation [2]: no effect on translation
bioavailability in mice [3]: extremely poor bioavailability; also recorded: undetectable in mouse serum at 6 h
IC50 [4]: 0.9 µM
cytotoxicity [5]: lack of cytotoxicity

O=C(Nc1nnc(-c2ccc(F)cc2)o1)N1CCc2ccccc2C1 [compound 4132, N-[5-(4-fluorophenyl)-1,3,4-oxadiazol-2-yl]-3,4-dihydroisoquinoline-2(1H)-carboxamide]
MIC [6]: 4.23 µg/mL (≈ 12.5 µM)
MIC90 [7]: 0.54 µg/mL (≈ 1.6 µM)
MIC [8]: 4.23 µg/mL (≈ 12.5 µM)
MIC [9]: 7.87 µM (≈ 2.66 µg/mL)
MIC [10]: 8.46 µg/mL (≈ 25 µM)
MIC [11]: 0.034 µg/mL (≈ 0.1 µM)
MIC [12]; 15531: > 33.8 µg/mL
Serum Stability (% remain) [13]: >95%
Fold Serum Shift vs. TolC(−) [14]: 12.7 fold
MIC [15]: 6.34 µg/mL (≈ 18.7 µM)
MIC [16]: 3.17 µg/mL (≈ 9.37 µM)
MIC [17]: 0.13 µg/mL (≈ 0.384 µM)
MIC [18]; 49619: 33.8 µg/mL (≈ 99.9 µM)
MIC [19]: 4.06 µg/mL (≈ 12 µM)
MIC90 [20]: 0.13 µg/mL (≈ 0.384 µM)
MIC [21]: 3.17 µg/mL (≈ 9.37 µM)
MIC [22]: 3.17 µg/mL (≈ 9.37 µM)
CC50 [23]: 27.2 µM
MIC [24]: 8.46 µg/mL (≈ 25 µM)
Papp [25]: 65.8 ×10⁻⁶ cm/s
MIC [26]: 1.06 µg/mL (≈ 3.13 µM)
MIC [27]: > 35 µg/mL
Microsomal Stability + NADPH % degraded [28]: 27%
MIC [29]: 4.23 µg/mL (≈ 12.5 µM)
solubility [30]: 6.25 µM (≈ 2.11 µg/mL)
MIC [31]: 6.34 µg/mL (≈ 18.7 µM)
MIC [32]; 49226: 0.18 µg/mL (≈ 0.532 µM)
MIC [33]: 0.13 µg/mL (≈ 0.384 µM)
MIC ([34]; Haemophilus, 35056): 16.9 µg/mL (≈ 50 µM)

O=C(Nc1nnc(-c2ccc(F)cc2)o1)c1ccc(Oc2ccccc2)nc1 [compound 4237, 2-(6-phenoxynicotinamido)-5-(4-fluorophenyl)-1,3,4-oxadiazole]
MIC [6]: 2.35 µg/mL (≈ 6.24 µM)
MIC [8]: 2.35 µg/mL (≈ 6.24 µM)
MIC [9]: 1.56 µM (≈ 0.588 µg/mL)
fraction unbound [35]: 0.002
MIC ([11]; read-out: MIC): 0.06 µg/mL (≈ 0.159 µM)
MIC ([12]; M. pneumoniae 15531, read-out: MIC): 18.8 µg/mL (≈ 50 µM)
Serum Stability (% remain) [13]: >95%
MIC ([15]; MRSA N315 NRS-70, read-out: MIC): 4.7 µg/mL (≈ 12.5 µM)
MIC ([16]; S. aureus NRS-77 (spec-res), read-out: MIC): 2.96 µg/mL (≈ 7.87 µM)
MIC ([18]; S. pneumoniae 49619, read-out: MIC): 4.7 µg/mL (≈ 12.5 µM)
MIC90 [20]: 1.51 µg/mL (≈ 4.01 µM)
MIC [21]: 2.35 µg/mL (≈ 6.24 µM)
MIC [22]: 2.35 µg/mL (≈ 6.24 µM)
CC50 [23]: > 100 µM
MIC [24]: 0.87 µg/mL (≈ 2.31 µM)
Papp [25]: 12.7 ×10⁻⁶ cm/s
MIC ([26]; MRSA USA 300 (BAA-1717), read-out: MIC): 2.1 µg/mL (≈ 5.58 µM)
MIC ([27]; E. coli (700, TolC+) efflux pos, read-out: MIC): > 39 µg/mL
Microsomal Stability + NADPH % degraded [28]: 9%
solubility [30]: 6.25 µM (≈ 2.35 µg/mL)
MIC [31]: 2.35 µg/mL (≈ 6.24 µM)
MIC ([32]; N. gonorrhoeae 49226, read-out: MIC): 0.75 µg/mL (≈ 1.99 µM)
MIC [33]: 0.75 µg/mL (≈ 1.99 µM)
MIC ([34]; Haemophilus influenza 35056, read-out: MIC): 9.41 µg/mL (≈ 25 µM)
